Values quoted from earlier work as cited in US9737644B2, “Medical device coatings” (TYRX, Inc., priority 2010, dated 2017).

Tested on: myofibroblast formation
Conditions: animal studies, Ajmal et al. (2003)

For `O=S(=O)([O-])CCS.[Na+]` [Mesna, sodium 2-mercaptoethane sulfonate], the myofibroblast formation is given as “diminish myofibroblast formation”.
